The text below walks through data of ChEMBL document CHEMBL4613209, “Quinolone hybrids and their anti-cancer activities: An overview” (Eur J Med Chem, 2019).

Molecules are shown by their SMILES. pIC50: −log10 of the molar value.

The term pIC50 denotes −log10 of the IC50, conventionally taken in molar units.

In one assay the test system is MGC-803. As to the kind of experiment: Cytotoxicity against human MGC803 cells assessed as reduction in cell viability. The format is functional, cell-based.
As to `C[C@H]1COc2c(N3CCN(C)CC3)c(F)cc3c(=O)c(-c4nnc(NC(=O)CCCCCC(=O)Nc5ccccc5N)s4)cn1c23`, the pIC50 was 6.69 to 7.34.
Turning to `C[C@H]1COc2c(N3CCN(C)CC3)c(F)cc3c(=O)c(-c4nnc(NC(=O)CCCCCCCC(=O)O)s4)cn1c23`, the pIC50 is 4.84 to 5.96.
Still for that read-out and setting: the result for `C[C@H]1COc2c(N3CCN(C)CC3)c(F)cc3c(=O)c(-c4nnc(NC(=O)CCCCC(=O)O)s4)cn1c23` reads 4.84 to 5.96; that for `C[C@H]1COc2c(N3CCN(C)CC3)c(F)cc3c(=O)c(-c4nnc(NC(=O)CCCCCCC(=O)O)s4)cn1c23`, 4.84 to 5.96.
For the compound `C[C@H]1COc2c(N3CCN(C)CC3)c(F)cc3c(=O)c(-c4nnc(NC(=O)CCCCC(=O)NO)s4)cn1c23`, the pIC50 is 6.90 to 7.72.
`C[C@H]1COc2c(N3CCN(C)CC3)c(F)cc3c(=O)c(-c4nnc(NC(=O)CCCC(=O)O)s4)cn1c23`: the pIC50 was 4.84 to 5.96.
Regarding `C[C@H]1COc2c(N3CCN(C)CC3)c(F)cc3c(=O)c(-c4nnc(NC(=O)CCCCCCCCC(=O)NO)s4)cn1c23`, the pIC50 was 6.90 to 7.72.

The subject of a further assay is MCF7. Kind of assay: Cytotoxicity against human MCF7 cells assessed as reduction in cell viability. In kind it is functional, cell-based.
As to `C[C@H]1COc2c(N3CCN(C)CC3)c(F)cc3c(=O)c(-c4nnc(NC(=O)CCCCCC(=O)Nc5ccccc5N)s4)cn1c23`, the pIC50 is 6.69 to 7.34.
Regarding `C[C@H]1COc2c(N3CCN(C)CC3)c(F)cc3c(=O)c(-c4nnc(NC(=O)CCCCCCCC(=O)O)s4)cn1c23`, the pIC50 is 4.84 to 5.96.
`C[C@H]1COc2c(N3CCN(C)CC3)c(F)cc3c(=O)c(-c4nnc(NC(=O)CCCCC(=O)O)s4)cn1c23`: the negative-log IC50 (pIC50) is 4.84 to 5.96.
Same read-out and setting: the result for `C[C@H]1COc2c(N3CCN(C)CC3)c(F)cc3c(=O)c(-c4nnc(NC(=O)CCCCCCC(=O)O)s4)cn1c23` reads 4.84 to 5.96; that for `C[C@H]1COc2c(N3CCN(C)CC3)c(F)cc3c(=O)c(-c4nnc(NC(=O)CCCCC(=O)NO)s4)cn1c23`, 6.90 to 7.72.
Still for that read-out and setting: the result for `C[C@H]1COc2c(N3CCN(C)CC3)c(F)cc3c(=O)c(-c4nnc(NC(=O)CCCC(=O)O)s4)cn1c23` reads 4.84 to 5.96.
Consider `C[C@H]1COc2c(N3CCN(C)CC3)c(F)cc3c(=O)c(-c4nnc(NC(=O)CCCCCCCCC(=O)NO)s4)cn1c23`, for which the pIC50 was 6.90 to 7.72.

The test system of another assay is GES1. Kind of assay: Cytotoxicity against human GES-1 cells assessed as reduction in cell viability. The format is cell-based.
Consider `C[C@H]1COc2c(N3CCN(C)CC3)c(F)cc3c(=O)c(-c4nnc(NC(=O)CCCCCC(=O)Nc5ccccc5N)s4)cn1c23`, for which the pIC50 was below 4.09.
In the case of `C[C@H]1COc2c(N3CCN(C)CC3)c(F)cc3c(=O)c(-c4nnc(NC(=O)CCCCCCCC(=O)O)s4)cn1c23`, the negative logarithm of the IC50 (pIC50) was below 4.09.
For `C[C@H]1COc2c(N3CCN(C)CC3)c(F)cc3c(=O)c(-c4nnc(NC(=O)CCCCC(=O)O)s4)cn1c23`, the pIC50 was below 4.09.
Consider `C[C@H]1COc2c(N3CCN(C)CC3)c(F)cc3c(=O)c(-c4nnc(NC(=O)CCCCCCC(=O)O)s4)cn1c23`, for which the negative logarithm of the IC50 (pIC50) was below 4.09.
On to `C[C@H]1COc2c(N3CCN(C)CC3)c(F)cc3c(=O)c(-c4nnc(NC(=O)CCCCC(=O)NO)s4)cn1c23`, for which the pIC50 is below 4.09.
As to `C[C@H]1COc2c(N3CCN(C)CC3)c(F)cc3c(=O)c(-c4nnc(NC(=O)CCCC(=O)O)s4)cn1c23`, the pIC50 was below 4.09.
The same measure, in the same setting: the result for `C[C@H]1COc2c(N3CCN(C)CC3)c(F)cc3c(=O)c(-c4nnc(NC(=O)CCCCCCCCC(=O)NO)s4)cn1c23` reads below 4.09.

For a further assay, the system named is NCI-H460. As to the kind of experiment: Cytotoxicity against human NCI-H460 cells assessed as reduction in cell viability. The format is functional, cell-based.
`C[C@H]1COc2c(N3CCN(C)CC3)c(F)cc3c(=O)c(-c4nnc(NC(=O)CCCCCC(=O)Nc5ccccc5N)s4)cn1c23`: the pIC50 is 6.69 to 7.34.
The same measure, in the same setting: the result for `C[C@H]1COc2c(N3CCN(C)CC3)c(F)cc3c(=O)c(-c4nnc(NC(=O)CCCCCCCC(=O)O)s4)cn1c23` reads 4.84 to 5.96; that for `C[C@H]1COc2c(N3CCN(C)CC3)c(F)cc3c(=O)c(-c4nnc(NC(=O)CCCCC(=O)O)s4)cn1c23`, 4.84 to 5.96.
Turning to `C[C@H]1COc2c(N3CCN(C)CC3)c(F)cc3c(=O)c(-c4nnc(NC(=O)CCCCCCC(=O)O)s4)cn1c23`, the pIC50 is 4.84 to 5.96.
Consider `C[C@H]1COc2c(N3CCN(C)CC3)c(F)cc3c(=O)c(-c4nnc(NC(=O)CCCCC(=O)NO)s4)cn1c23`, for which the pIC50 is 6.90 to 7.72.
With `C[C@H]1COc2c(N3CCN(C)CC3)c(F)cc3c(=O)c(-c4nnc(NC(=O)CCCC(=O)O)s4)cn1c23`, the pIC50 is 4.84 to 5.96.
On the same count and under the same terms, the result for `C[C@H]1COc2c(N3CCN(C)CC3)c(F)cc3c(=O)c(-c4nnc(NC(=O)CCCCCCCCC(=O)NO)s4)cn1c23` reads 6.90 to 7.72.

Another assay has as its system PC-3. As to the kind of experiment: Cytotoxicity against human PC3 cells assessed as reduction in cell viability. In kind it is functional, cell-based.
`C[C@H]1COc2c(N3CCN(C)CC3)c(F)cc3c(=O)c(-c4nnc(NC(=O)CCCCCC(=O)Nc5ccccc5N)s4)cn1c23`: the pIC50 was 6.69 to 7.34.
On to `C[C@H]1COc2c(N3CCN(C)CC3)c(F)cc3c(=O)c(-c4nnc(NC(=O)CCCCCCCC(=O)O)s4)cn1c23`, for which the pIC50 is 4.84 to 5.96.
Turning to `C[C@H]1COc2c(N3CCN(C)CC3)c(F)cc3c(=O)c(-c4nnc(NC(=O)CCCCC(=O)O)s4)cn1c23`, the pIC50 was 4.84 to 5.96.
Same read-out and setting: the result for `C[C@H]1COc2c(N3CCN(C)CC3)c(F)cc3c(=O)c(-c4nnc(NC(=O)CCCCCCC(=O)O)s4)cn1c23` reads 4.84 to 5.96; that for `C[C@H]1COc2c(N3CCN(C)CC3)c(F)cc3c(=O)c(-c4nnc(NC(=O)CCCCC(=O)NO)s4)cn1c23`, 6.90 to 7.72; that for `C[C@H]1COc2c(N3CCN(C)CC3)c(F)cc3c(=O)c(-c4nnc(NC(=O)CCCC(=O)O)s4)cn1c23`, 4.84 to 5.96.
Regarding `C[C@H]1COc2c(N3CCN(C)CC3)c(F)cc3c(=O)c(-c4nnc(NC(=O)CCCCCCCCC(=O)NO)s4)cn1c23`, the pIC50 is 6.90 to 7.72.

Another assay relates to HepG2. Kind of assay: Cytotoxicity against human HepG2 cells assessed as reduction in cell viability. In kind it is functional, cell-based.
On to `C[C@H]1COc2c(N3CCN(C)CC3)c(F)cc3c(=O)c(-c4nnc(NC(=O)CCCCCC(=O)Nc5ccccc5N)s4)cn1c23`, for which the negative logarithm of the IC50 (pIC50) is 6.69 to 7.34.
As to `C[C@H]1COc2c(N3CCN(C)CC3)c(F)cc3c(=O)c(-c4nnc(NC(=O)CCCCCCCC(=O)O)s4)cn1c23`, the negative logarithm of the IC50 (pIC50) was 4.84 to 5.96.
Still for that read-out and setting: the result for `C[C@H]1COc2c(N3CCN(C)CC3)c(F)cc3c(=O)c(-c4nnc(NC(=O)CCCCC(=O)O)s4)cn1c23` reads 4.84 to 5.96; that for `C[C@H]1COc2c(N3CCN(C)CC3)c(F)cc3c(=O)c(-c4nnc(NC(=O)CCCCCCC(=O)O)s4)cn1c23`, 4.84 to 5.96.
The same measure, in the same setting: the result for `C[C@H]1COc2c(N3CCN(C)CC3)c(F)cc3c(=O)c(-c4nnc(NC(=O)CCCCC(=O)NO)s4)cn1c23` reads 6.90 to 7.72.
`C[C@H]1COc2c(N3CCN(C)CC3)c(F)cc3c(=O)c(-c4nnc(NC(=O)CCCC(=O)O)s4)cn1c23`: the pIC50 is 4.84 to 5.96.
Turning to `C[C@H]1COc2c(N3CCN(C)CC3)c(F)cc3c(=O)c(-c4nnc(NC(=O)CCCCCCCCC(=O)NO)s4)cn1c23`, the pIC50 is 6.90 to 7.72.

A further assay has as its system SW-620. Kind of assay: Cytotoxicity against human SW620 cells assessed as reduction in cell viability. The format is functional, cell-based.
On to `C[C@H]1COc2c(N3CCN(C)CC3)c(F)cc3c(=O)c(-c4nnc(NC(=O)CCCCCC(=O)Nc5ccccc5N)s4)cn1c23`, for which the pIC50 is 6.69 to 7.34.
The same measure, in the same setting: the result for `C[C@H]1COc2c(N3CCN(C)CC3)c(F)cc3c(=O)c(-c4nnc(NC(=O)CCCCCCCC(=O)O)s4)cn1c23` reads 4.84 to 5.96; that for `C[C@H]1COc2c(N3CCN(C)CC3)c(F)cc3c(=O)c(-c4nnc(NC(=O)CCCCC(=O)O)s4)cn1c23`, 4.84 to 5.96; that for `C[C@H]1COc2c(N3CCN(C)CC3)c(F)cc3c(=O)c(-c4nnc(NC(=O)CCCCCCC(=O)O)s4)cn1c23`, 4.84 to 5.96.
As for `C[C@H]1COc2c(N3CCN(C)CC3)c(F)cc3c(=O)c(-c4nnc(NC(=O)CCCCC(=O)NO)s4)cn1c23`, the pIC50 was 6.90 to 7.72.
For `C[C@H]1COc2c(N3CCN(C)CC3)c(F)cc3c(=O)c(-c4nnc(NC(=O)CCCC(=O)O)s4)cn1c23`, the pIC50 was 4.84 to 5.96.
As to `C[C@H]1COc2c(N3CCN(C)CC3)c(F)cc3c(=O)c(-c4nnc(NC(=O)CCCCCCCCC(=O)NO)s4)cn1c23`, the pIC50 is 6.90 to 7.72.
